The target in the experiment is T1, human GLP-1 receptor (Homo sapiens, UniProt P43220).
T1 construct: expressed in transfected cells; host or cells: HEK-293
As to the kind of experiment: cAMP response of HEK-293 cells stably expressing human GLP-1 receptor (HTRF). It is filed as cell-based. The settings on record: Table 6; read-out: EC50 hGLP-1R. The method, then:
For preparation, cells were split into T175 culture flasks and grown overnight to near confluency in medium (DMEM/10% FBS). Medium was then removed and cells washed with PBS lacking calcium and magnesium, followed by proteinase treatment with accutase (Sigma-Aldrich cat. no. A6964). Detached cells were washed and resuspended in assay buffer (1×HBSS; 20 mM HEPES, 0.1% BSA, 2 mM IBMX) and cellular density determined. They were then diluted to 400000 cells/ml and 25 μl-aliquots dispensed into the wells of 96-well plates. For measurement, 25 μl of test compound in assay buffer was added to the wells, followed by incubation for 30 minutes at room temperature. […] Potencies of peptidic compounds at the GLP-1, glucagon and GIP receptors were determined by exposing cells expressing human glucagon receptor (hGlucagon R), human GIP receptor (hGIP-R) or human GLP-1 receptor (hGLP-1R) to the listed compounds at increasing concentrations and measuring the formed cAMP as described in Methods.

T1 sequence (P43220 24-463): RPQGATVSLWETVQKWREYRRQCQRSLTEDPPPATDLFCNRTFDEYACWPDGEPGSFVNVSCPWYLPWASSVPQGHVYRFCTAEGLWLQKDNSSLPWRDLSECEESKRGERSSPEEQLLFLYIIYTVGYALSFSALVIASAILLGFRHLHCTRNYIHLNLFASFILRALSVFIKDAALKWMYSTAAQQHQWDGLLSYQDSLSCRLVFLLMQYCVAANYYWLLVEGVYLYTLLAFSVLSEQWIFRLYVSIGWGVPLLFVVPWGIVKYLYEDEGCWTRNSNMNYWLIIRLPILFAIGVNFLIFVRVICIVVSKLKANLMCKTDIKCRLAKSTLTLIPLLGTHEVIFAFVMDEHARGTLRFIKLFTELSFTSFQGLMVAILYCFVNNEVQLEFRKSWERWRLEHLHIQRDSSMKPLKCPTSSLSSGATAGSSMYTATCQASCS

For `CCCCCCCCCCCCCCCCCC(=O)N[C@@H](CCC(=O)NCCCC[C@H](NC(=O)[C@H](CCC(N)=O)NC(=O)[C@H](CCCCN)NC(=O)[C@H](CO)NC(=O)[C@H](CC(C)C)NC(=O)[C@H](CC(=O)O)NC(=O)[C@H](CO)NC(=O)[C@@H](NC(=O)[C@H](Cc1ccccc1)NC(=O)[C@@H](NC(=O)CNC(=O)[C@H](CCC(N)=O)NC(=O)[C@@H](CO)NC(=O)[C@@H](N)Cc1c[nH]cn1)[C@@H](C)O)[C@@H](C)O)C(=O)N[C@@H](CC(=O)O)C(=O)N[C@@H](CCC(=O)O)C(=O)N[C@@H](CCC(=O)O)C(=O)N[C@@H](C)C(=O)N[C@@H](C)C(=O)N[C@@H](CCCNC(=N)N)C(=O)N[C@@H](CC(C)C)C(=O)N[C@@H](Cc1ccccc1)C(=O)N[C@H](C(=O)N[C@@H](CCC(=O)O)C(=O)N[C@@H](Cc1c[nH]c2ccccc12)C(=O)N[C@@H](CC(C)C)C(=O)NC(C)(C)C(=O)N[C@@H](CCCCN)C(=O)N[C@H](C)C(=O)NCC(=O)N1CCC[C@H]1C(=O)N[C@@H](CO)C(=O)N[C@@H](CO)C(=O)NCC(=O)N[C@@H](C)C(=O)N1CCC[C@H]1C(=O)N1CCC[C@H]1C(=O)N1CCC[C@H]1C(=O)N[C@@H](CO)C(N)=O)[C@@H](C)CC)C(=O)O` [SEQ ID NO: 25, H-dSer-Q-G-T-F-T-S-D-L-S-K-Q-K(γE-x70)-D-E-E-A-A-R-L-F-I-E-W-L-Aib-K-dAla-G-P-S-S-G-A-P-P-P-S-NH2], the EC50 came out at 2.1 pM.

Consider `CCCCCCCCCCCCCCCC(=O)N[C@@H](CCC(=O)N[C@@H](CCC(=O)NCCCC[C@H](NC(=O)[C@H](CCC(N)=O)NC(=O)[C@H](CCCCN)NC(=O)[C@H](CO)NC(=O)[C@H](CC(C)C)NC(=O)[C@H](CC(=O)O)NC(=O)[C@H](CO)NC(=O)[C@@H](NC(=O)[C@H](Cc1ccccc1)NC(=O)[C@@H](NC(=O)CNC(=O)[C@H](Cc1c[nH]cn1)NC(=O)[C@@H](CO)NC(=O)[C@@H](N)Cc1c[nH]cn1)[C@@H](C)O)[C@@H](C)O)C(=O)N[C@@H](CCC(=O)O)C(=O)N[C@@H](CCC(=O)O)C(=O)N[C@@H](CCC(=O)O)C(=O)N[C@@H](C)C(=O)N[C@@H](C)C(=O)N[C@@H](CCCNC(=N)N)C(=O)N[C@@H](CC(C)C)C(=O)N[C@@H](Cc1ccccc1)C(=O)N[C@H](C(=O)N[C@@H](CCC(=O)O)C(=O)N[C@@H](Cc1c[nH]c2ccccc12)C(=O)N[C@@H](CC(C)C)C(=O)NC(C)(C)C(=O)N[C@@H](CCCCN)C(=O)N[C@H](C)C(=O)NCC(=O)N1CCC[C@H]1C(=O)N[C@@H](CO)C(=O)N[C@@H](CO)C(=O)NCC(=O)N[C@@H](C)C(=O)N1CCC[C@H]1C(=O)N1CCC[C@H]1C(=O)N1CCC[C@H]1C(=O)N[C@@H](CO)C(N)=O)[C@@H](C)CC)C(=O)O)C(=O)O` [SEQ ID NO: 27, H-dSer-H-G-T-F-T-S-D-L-S-K-Q-K(γE-γE-x53)-E-E-E-A-A-R-L-F-I-E-W-L-Aib-K-dAla-G-P-S-S-G-A-P-P-P-S-NH2], for which the half-maximal effective concentration (EC50) was 2.1 pM.
